Where two headings read alike, the source gives them in different places.
Legend:
Type in all cases: cell-based
PANC-1 = assay: SRB colorimetric cell growth inhibition assay, PANC-1; conditions: Homo sapiens; for GI50: GI=growth inhibition, read-out: GI50 PANC-1; for CC50: read-out: LC50 PANC-1; for IC (TGI): read-out: TGI PANC-1
Summary of the method: (§1)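 Tested samples remained on human cancer cell cultures throughout the incubation; viable biomass was then stained with SRB and read colorimetrically.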

DU-145 = assay: SRB colorimetric cell growth inhibition assay, DU-145; conditions: Homo sapiens; for GI50: GI=growth inhibition, read-out: GI50 DU-145; for CC50: cell killing (cytotoxic effect), read-out: LC50 DU-145; for IC (TGI): total growth inhibition (cytostatic effect), read-out: TGI DU-145
Summary of the method: as §1

SK-BR-3 = assay: SRB colorimetric cell growth inhibition assay, SK-BR-3; conditions: Homo sapiens; for GI50: GI=growth inhibition, read-out: GI50 SK-BR-3; for CC50: cell killing (cytotoxic effect), read-out: LC50 SK-BR-3; for IC (TGI): total growth inhibition (cytostatic effect), read-out: TGI SK-BR-3
Summary of the method: as §1

SKOV-3 = assay: SRB colorimetric cell growth inhibition assay, SKOV-3; conditions: Homo sapiens; for GI50: SK-OV-3, SKOV-3, GI=growth inhibition, read-out: GI50 SKOV-3; for LC50 (concentration causing 50% net cell killing) / IC (TGI): SK-OV-3, SKOV-3; for LC50 (concentration causing 50% net cell killing): cell killing (cytotoxic effect), read-out: LC50 SKOV-3; for IC (TGI): total growth inhibition (cytostatic effect), read-out: TGI SKOV-3
Summary of the method: (§2)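 Growth inhibition (GI), total growth inhibition (TGI, cytostatic) and lethal concentration (LC, cytotoxic) come from an SRB-based colorimetric measure of growth and viability. Data are triplicate-well means ± SD.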

LNCaP = assay: SRB colorimetric cell growth inhibition assay, LNCaP; conditions: Homo sapiens, LNCaP, LN-caP; for GI50: GI=growth inhibition, read-out: GI50 LN-caP; for CC50: cell killing (cytotoxic effect), read-out: LC50 LN-caP; for IC (TGI): total growth inhibition (cytostatic effect), read-out: TGI LN-caP
Summary of the method: as §1

IGROV-ET = assay: SRB colorimetric cell growth inhibition assay, IGROV-ET (ET-743 resistant); conditions: Homo sapiens, IGROV-ET; for GI50: GI=growth inhibition, read-out: GI50 IGROV-ET; for CC50: cell killing (cytotoxic effect), read-out: LC50 IGROV-ET; for IC (TGI): total growth inhibition (cytostatic effect), read-out: TGI IGROV-ET
Summary of the method: as §1

[1] = SRB colorimetric cell growth inhibition assay, H-MEC-1; conditions: human, H-MEC-1, cell killing (cytotoxic effect), read-out: LC50 H-MEC-1
Summary of the method: as §2

H-MEC-1 = assay: as above; conditions: Homo sapiens, HMEC-1, H-MEC-1; for GI50: GI=growth inhibition, read-out: GI50 H-MEC-1; for IC (TGI): total growth inhibition (cytostatic effect), read-out: TGI H-MEC-1
Summary of the method: as §2

LoVo-Dox = assay: SRB colorimetric cell growth inhibition assay, LoVo-Dox (MDR); conditions: Homo sapiens, LOVO-DOX; for GI50: GI=growth inhibition, read-out: GI50 LOVO-DOX; for CC50: read-out: LC50 LOVO-DOX; for IC (TGI): read-out: TGI LOVO-DOX
Summary of the method: as §1

IGROV = assay: SRB colorimetric cell growth inhibition assay, IGROV
Summary of the method: as §1

HT-29 = assay: SRB colorimetric cell growth inhibition assay, HT-29; conditions: Homo sapiens; for GI50: GI=growth inhibition, read-out: GI50 HT-29; for CC50: read-out: LC50 HT-29; for IC (TGI): read-out: TGI HT-29
Summary of the method: as §1

A-549 = assay: SRB colorimetric cell growth inhibition assay, A-549; conditions: Homo sapiens, A549, A-549; for GI50: GI=growth inhibition, read-out: GI50 A-549; for CC50: read-out: LC50 A-549; for IC (TGI): read-out: TGI A-549
Summary of the method: as §1

LoVo = assay: SRB colorimetric cell growth inhibition assay, LoVo; conditions: Homo sapiens; for GI50: GI=growth inhibition, read-out: GI50 LOVO; for CC50: read-out: LC50 LOVO; for IC (TGI): read-out: TGI LOVO
Summary of the method: as §1

K-562 = assay: SRB colorimetric cell growth inhibition assay, K-562; conditions: Homo sapiens, K562, K-562; for GI50: GI=growth inhibition, read-out: GI50 K-562; for CC50: read-out: LC50 K-562; for IC (TGI): read-out: TGI K-562
Summary of the method: as §1

SK-MEL-28 = assay: SRB colorimetric cell growth inhibition assay, SK-MEL-28; conditions: Homo sapiens, SK-MEL-28, MEL-28; for GI50: GI=growth inhibition, read-out: GI50 MEL-28; for CC50: cell killing (cytotoxic effect), read-out: LC50 MEL-28; for IC (TGI): total growth inhibition (cytostatic effect), read-out: TGI MEL-28
Summary of the method: as §1

[2] = PANC-1, PANC-1, cell killing (cytotoxic effect)
[3] = PANC-1, PANC-1, total growth inhibition (cytostatic effect)
[4] = cell killing (cytotoxic effect)
[5] = total growth inhibition (cytostatic effect)
[6] = Homo sapiens, IGROV; GI=growth inhibition; read-out: GI50 IGROV
[7] = Homo sapiens, IGROV; cell killing (cytotoxic effect); read-out: LC50 IGROV
[8] = Homo sapiens, IGROV; total growth inhibition (cytostatic effect); read-out: TGI IGROV
[9] = HT-29, HT-29, cell killing (cytotoxic effect)
[10] = HT-29, HT-29, total growth inhibition (cytostatic effect)
[11] = LoVo, cell killing (cytotoxic effect)
[12] = LoVo, total growth inhibition (cytostatic effect)
[13] = LC=cell killing (cytotoxic effect)
[14] = TGI=total growth inhibition (cytostatic effect)

## COc1cc2c(cc1OC)-c1c(-c3ccc(OC(=O)[C@H](C)NC(=O)OC(C)(C)C)c(OC)c3)c3c4cc(OC)c(OC(=O)[C@H](C)NC(=O)OC(C)(C)C)cc4oc(=O)c3n1CC2 [Compound 21]
PANC-1; PANC-1, PANC-1
  GI50: 0.514 µM
PANC-1; [2]
  CC50: 11.7 µM
PANC-1; [3]
  IC (TGI): 1.81 µM
DU-145; DU-145, DU-145
  GI50: 0.353 µM
  CC50: 11.7 µM
  IC (TGI): 0.703 µM
SK-BR-3; SK-BR-3, SK-BR-3
  GI50: 0.342 µM
  CC50: 11.7 µM
  IC (TGI): 0.599 µM
SKOV-3
  GI50: 0.849 µM
  LC50 (concentration causing 50% net cell killing): 11.7 µM
  IC (TGI): 11.7 µM
LNCaP
  GI50: 0.19 µM
  CC50: 0.775 µM
  IC (TGI): 0.383 µM
IGROV-ET
  GI50: 0.901 µM
  CC50: 11.7 µM
  IC (TGI): 5.18 µM
[1]; H-MEC-1 cells
  LC50 (concentration giving 50% net cell killing): 0.922 µM
H-MEC-1
  GI50: 0.281 µM
  IC (TGI): 0.509 µM
LoVo-Dox
  GI50: 4.97 µM
LoVo-Dox; [4]
  CC50: 11.7 µM
LoVo-Dox; [5]
  IC (TGI): 11.7 µM
IGROV; [6]
  GI50: 0.315 µM
IGROV; [7]
  CC50: 9.02 µM
IGROV; [8]
  IC (TGI): 0.664 µM
HT-29; HT-29, HT-29
  GI50: 0.512 µM
HT-29; [9]
  CC50: 11.7 µM
HT-29; [10]
  IC (TGI): 11.7 µM
A-549
  GI50: 1.39 µM
A-549; [4]
  CC50: 11.7 µM
A-549; [5]
  IC (TGI): 4.62 µM
LoVo; LoVo
  GI50: 1.95 µM
LoVo; [11]
  CC50: 11.7 µM
LoVo; [12]
  IC (TGI): 4.97 µM
K-562
  GI50: 0.286 µM
K-562; [4]
  CC50: 2.39 µM
K-562; [5]
  IC (TGI): 0.582 µM
SK-MEL-28
  GI50: 0.287 µM
  CC50: 0.86 µM
  IC (TGI): 0.497 µM

## COc1cc(-c2c3c4cc(OC)c(O)cc4oc(=O)c3n3ccc4cc(OC)c(OC)cc4c23)ccc1O [Compound 26]
PANC-1; PANC-1, PANC-1
  GI50: 1.07 µM
PANC-1; [2]
  CC50: 19.5 µM
PANC-1; [3]
  IC (TGI): 8.8 µM
DU-145; DU-145, DU-145
  GI50: 0.611 µM
  CC50: 19.5 µM
  IC (TGI): 2.94 µM
SK-BR-3; SK-BR-3, SK-BR-3
  GI50: 0.0966 µM
  CC50: 13.6 µM
  IC (TGI): 1.09 µM
SKOV-3
  GI50: 0.874 µM
  LC50 (concentration causing 50% net cell killing): 19.5 µM
  IC (TGI): 5.53 µM
LNCaP
  GI50: 0.711 µM
  CC50: 14.7 µM
  IC (TGI): 4.3 µM
IGROV-ET
  GI50: 0.574 µM
  CC50: 19.5 µM
  IC (TGI): 2.08 µM
[1]; H-MEC-1 cells
  LC50 (concentration giving 50% net cell killing): 19.5 µM
H-MEC-1
  GI50: 0.798 µM
  IC (TGI): 19.5 µM
LoVo-Dox
  GI50: 0.867 µM
LoVo-Dox; [4]
  CC50: 19.5 µM
LoVo-Dox; [5]
  IC (TGI): 7.63 µM
IGROV; [6]
  GI50: 0.504 µM
IGROV; [7]
  CC50: 13 µM
IGROV; [8]
  IC (TGI): 2.3 µM
HT-29; HT-29, HT-29
  GI50: 9.17 µM
HT-29; [9]
  CC50: 19.5 µM
HT-29; [10]
  IC (TGI): 19.5 µM
A-549
  GI50: 1.11 µM
A-549; [4]
  CC50: 19.5 µM
A-549; [5]
  IC (TGI): 8.1 µM
LoVo; LoVo
  GI50: 1.19 µM
LoVo; [11]
  CC50: 19.5 µM
LoVo; [12]
  IC (TGI): 10 µM
K-562
  GI50: 0.785 µM
K-562; [4]
  CC50: 16.1 µM
K-562; [5]
  IC (TGI): 3.41 µM
SK-MEL-28
  GI50: 2.08 µM
  CC50: 19.5 µM
  IC (TGI): 7.79 µM

## COc1cc(-c2c3n(c4c(=O)oc5cc(OC(=O)[C@H](Cc6c[nH]c7ccccc67)NC(=O)OC(C)(C)C)c(OC)cc5c24)CCc2cc(OC(=O)[C@H](Cc4c[nH]c5ccccc45)NC(=O)OC(C)(C)C)c(OC)cc2-3)ccc1OC(=O)[C@H](Cc1c[nH]c2ccccc12)NC(=O)OC(C)(C)C [Compound 29]
PANC-1; PANC-1, PANC-1, LC=cell killing (cytotoxic effect)
  CC50: 7.35 µM
PANC-1; PANC-1, PANC-1, TGI=total growth inhibition (cytostatic effect)
  IC (TGI): 4.23 µM
PANC-1; PANC-1
  GI50: 0.978 µM
DU-145; DU-145, DU-145
  CC50: 3.9 µM
DU-145; DU-145
  GI50: 0.198 µM
  IC (TGI): 0.44 µM
SK-BR-3; SK-BR-3, SK-BR-3
  CC50: 7.03 µM
SK-BR-3; SK-BR-3
  GI50: 0.242 µM
  IC (TGI): 0.525 µM
SKOV-3
  GI50: 1.79 µM
  LC50 (concentration causing 50% net cell killing): 7.35 µM
  IC (TGI): 3.9 µM
LNCaP
  GI50: 0.0704 µM
  CC50: 0.396 µM
  IC (TGI): 0.169 µM
IGROV-ET
  GI50: 5.65 µM
  CC50: 7.35 µM
  IC (TGI): 7.35 µM
[1]
  LC50 (concentration giving 50% net cell killing): 0.29 µM
H-MEC-1
  GI50: 0.0242 µM
  IC (TGI): 0.0526 µM
LoVo-Dox
  GI50: 7.35 µM
LoVo-Dox; [13]
  CC50: 7.35 µM
LoVo-Dox; [14]
  IC (TGI): 7.35 µM
IGROV; [7]
  CC50: 7.35 µM
IGROV; Homo sapiens; IGROV; GI=growth inhibition; read-out: GI50 IGROV
  GI50: 0.367 µM
IGROV; Homo sapiens; IGROV; total growth inhibition (cytostatic effect); read-out: TGI IGROV
  IC (TGI): 1.66 µM
HT-29; HT-29, HT-29, LC=cell killing (cytotoxic effect)
  CC50: 7.35 µM
HT-29; HT-29
  GI50: 1.84 µM
HT-29; HT-29, TGI=total growth inhibition (cytostatic effect)
  IC (TGI): 5.08 µM
A-549
  GI50: 1.73 µM
A-549; [13]
  CC50: 7.35 µM
A-549; [14]
  IC (TGI): 3.63 µM
LoVo; LoVo, LC=cell killing (cytotoxic effect)
  CC50: 7.35 µM
LoVo; LOVO
  GI50: 2.91 µM
LoVo; LOVO, TGI=total growth inhibition (cytostatic effect)
  IC (TGI): 7.35 µM
K-562
  GI50: 0.481 µM
K-562; [13]
  CC50: 7.35 µM
K-562; [14]
  IC (TGI): 3.46 µM
SK-MEL-28
  GI50: 1.55 µM
  CC50: 6.45 µM
  IC (TGI): 3.17 µM
